The experiment concerns the target T1, human FSH receptor (Homo sapiens, UniProt P23945).
T1 construct: expressed in transfected cells; host or cells: CHO (Chinese Hamster Ovary) cells, stably transfected; cotransfected with a CRE-luciferase reporter
T1 sequence (P23945 18-695): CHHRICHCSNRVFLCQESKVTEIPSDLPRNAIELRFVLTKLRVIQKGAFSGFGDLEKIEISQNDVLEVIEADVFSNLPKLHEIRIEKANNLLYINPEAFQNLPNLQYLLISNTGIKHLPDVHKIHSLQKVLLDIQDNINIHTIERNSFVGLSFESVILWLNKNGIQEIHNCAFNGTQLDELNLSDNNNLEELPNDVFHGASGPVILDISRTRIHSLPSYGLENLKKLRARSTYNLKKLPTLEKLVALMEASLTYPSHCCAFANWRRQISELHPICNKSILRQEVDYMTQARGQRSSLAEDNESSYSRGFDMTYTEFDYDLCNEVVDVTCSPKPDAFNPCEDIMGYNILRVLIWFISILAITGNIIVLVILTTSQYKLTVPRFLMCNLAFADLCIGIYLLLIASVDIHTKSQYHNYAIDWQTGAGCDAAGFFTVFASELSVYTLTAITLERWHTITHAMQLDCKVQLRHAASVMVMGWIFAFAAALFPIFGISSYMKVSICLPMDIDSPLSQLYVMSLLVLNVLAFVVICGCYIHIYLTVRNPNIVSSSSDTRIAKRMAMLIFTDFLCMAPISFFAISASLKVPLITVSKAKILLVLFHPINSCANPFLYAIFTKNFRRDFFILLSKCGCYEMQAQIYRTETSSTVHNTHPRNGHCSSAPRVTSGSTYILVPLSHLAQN
The experiment in a line: Antagonistic activity at the human FSH receptor expressed in CHO cells (CRE-luciferase reporter). In kind it is cell-based. Particulars: CHO cells stably transfected with human FSH receptor and CRE-luciferase; with 49 μM recFSH; 4 hours incubation; read-out: IC50 (inhibition of recFSH-induced luciferase stimulation). The method, then: Antagonistic Activity of Compounds at the Human FSH Receptor Expressed in CHO Cells
Antagonistic activity of the compounds at the human FSH receptor was determined in Chinese Hamster Ovary (CHO) cells stably transfected with the human FSH receptor and cotransfected to with a cAMP responsive element (CRE)/promoter directing the expression of a firefly luciferase reporter gene. Binding of the compounds to the Gs protein-coupled FSH receptor will result in an increase of cAMP, which in turn will induce an increased transactivation of the luciferase reporter. The cells (7,500 cells/well of a 384 well plate) were incubated in Dulbecco′ minimal essential F12 modified medium (Invitrogen), supplemented with 1 μg/ml bovine insulin, 5 μg/ml human apo-transferrin, 100 U/ml penicillin G and 100 μg/ml streptomycin with the test compounds (concentration between 0.316 nM and 10.0 μM) in duplicate together with […] recFSH (which, at this concentration in the absence of test compound, induces 80% of the maximal luciferase stimulation) in a humidified atmosphere (95%) at 5-7% CO2 and 37° C. The final concentration of DMSO was 1%. After 4 hours of incubation, plates were allowed to adjust to room temperature for 1 hour. Then, SteadyLite (PerkinElmer) solution was added to the wells and cells were allowed to lyse for at least 1 hour at room temperature. Subsequently, luciferase activity was measured in a luminescence counter. The signal is expressed as counts per second (cps). The IC50 (concentration of test compound causing half-maximal (50%) inhibition of the maximally attainable inhibition of the luciferase stimulation by the compound) and efficacy of the compounds were determined using the software program MathIQ (version 2.3, ID Business Solutions Limited).
`COc1cccc(-c2cc3c(cc2C(=O)N[C@@H](CO)Cc2c[nH]c4ccccc24)-c2cc(OC)c(OC)cc2CC3)c1` [Example 25, (R)—N-(1-hydroxy-3-(1H-indol-3-v)propan-2-v)-6,7-dimethoxy-2-(3-methoxyphenyl)-9,10-dihydrophenanthrene-3-carboxamide]: the IC50 was below 0.1 µM.
For `COc1cc2c(cc1OC)-c1cc(C(=O)N[C@@H](CO)Cc3c[nH]c4ccccc34)c(-c3cccc(C(N)=O)c3)cc1CC2` [Example 26, (R)-2-(3-carbamoylphenyl)-N-(1-hydroxy-3-(1H-indol-3-yl)propan-2-yl)-6,7-dimethoxy-9,10-dihydrophenanthrene-3-carboxamide], the half-maximal inhibitory concentration (IC50) was 0.1 to 1 µM.
As to `C=CCOc1cc2c(cc1OC)-c1cc(C(=O)N[C@@H](CO)Cc3c[nH]c4ccccc34)c(-c3ccccc3F)cc1CC2` [Example 28, 7-(allyloxy)-2-(2-fluorophenyl)-N—((R)-1-hydroxy-3-(1H-indol-3-yl)propan-2-yl)-6-methoxy-9,10-dihydrophenanthrene-3-carboxamide], the concentration for half-maximal inhibition (IC50) was below 0.1 µM.
Then `C=CCOc1cc2c(cc1OC)CCc1cc(-c3ccccc3F)c(C(=O)N[C@@H](CO)Cc3c[nH]c4ccccc34)cc1-2` [Example 29, 6-(allyloxy)-2-(2-fluorophenyl)-N—((R)-1-hydroxy-3-(1H-indol-3-yl)propan-2-yl)-7-methoxy-9,10-dihydrophenanthrene-3-carboxamide], with below 0.1 µM; and `COc1cc2c(cc1O)CCc1cc(-c3ccccc3F)c(C(=O)N[C@@H](CO)Cc3c[nH]c4ccccc34)cc1-2` [Example 30, 2-(2-fluorophenyl)-7-hydroxy-N—((R)-1-hydroxy-3-(1H-indol-3-yl)propan-2-yl)-6-methoxy-9,10-dihydrophenanthrene-3-carboxamide], with below 0.1 µM.
Then `COc1cc2c(cc1O)-c1cc(C(=O)N[C@@H](CO)Cc3c[nH]c4ccccc34)c(-c3ccccc3F)cc1CC2` [Example 31, 2-(2-fluorophenyl)-6-hydroxy-N—((R)-1-hydroxy-3-(1H-indol-3-yl)propan-2-yl)-7-methoxy-9,10-dihydrophenanthrene-3-carboxamide], with 0.1 to 1 µM; and `COc1cc2c(cc1C#N)-c1cc(C(=O)N[C@@H](CO)Cc3c[nH]c4ccccc34)c(OC(C)C)cc1CC2` [Example 33, (R)-6-cyano-N-(1-hydroxy-3-(1H-indol-3-yl)propan-2-yl)-2-isopropoxy-7-methoxy-9,10-dihydrophenanthrene-3-carboxamide], with 0.1 to 1 µM.
As for `COc1cc2c(cc1OC)-c1cc(C(=O)N[C@@H](CO)Cc3c[nH]c4ccccc34)c(OC(C)C)cc1OC2` [Example 34, (R)—N-(1-hydroxy-3-(1H-indol-3-yl)propan-2-yl)-3-isopropoxy-8,9-dimethoxy-6H-benzo[c]chromene-2-carboxamide], the figure is below 0.1 µM.
Consider `CC(C)Oc1cc2c(cc1C(=O)N[C@@H](CO)Cc1c[nH]c3ccccc13)-c1cc3c(cc1CO2)OCO3` [Example 35, (R)—N-(1-hydroxy-3-(1H-indol-3-yl)propan-2-yl)-3-isopropoxy-8,9-(1′,3′-dioxolo)-6H-benzo[c]chromene-2-carboxamide], for which the IC50 was in the range of 0.1 to 1 µM.
Then `COc1cc2c(cc1OC)-c1cc(C(=O)N[C@@H](CO)Cc3c[nH]c4ccccc34)c(-c3ccccc3F)cc1OC2` [Example 36, 3-(2-fluorophenyl)-N—((R)-1-hydroxy-3-(1H-indol-3-yl)propan-2-yl)-8,9-dimethoxy-6H-benzo[c]chromene-2-carboxamide], with below 0.1 µM.
As to `COc1cc2c(cc1OC)-c1cc(C(=O)N[C@@H](CO)Cc3c[nH]c4ccccc34)c(-c3cccc(F)c3F)cc1OC2` [Example 37, 3-(2,3-difluorophenyl)-N—((R)-1-hydroxy-3-(1H-indol-3-yl)propan-2-yl)-8,9-dimethoxy-6H-benzo[c]chromene-2-carboxamide], the IC50 was below 0.1 µM.
As for `COc1cc2c(cc1OC)-c1cc(C(=O)N[C@@H](CO)Cc3c[nH]c4ccccc34)c(-c3c(C)n[nH]c3C)cc1OC2` [Example 38, 3-(3,5-dimethyl-1H-pyrazol-4-yl)-N—((R)-1-hydroxy-3-(1H-indol-3-yl)propan-2-yl)-8,9-dimethoxy-6H-benzo[c]chromene-2-carboxamide], the figure is below 0.1 µM; as for `COc1cc2c(cc1OC)-c1cc(C(=O)N[C@@H](CO)Cc3c[nH]c4ccccc34)c(-c3sccc3C)cc1OC2` [Example 39, N—((R)-1-hydroxy-3-(1H-indol-3-yl)propan-2-yl)-8,9-dimethoxy-3-(3-methylthiophen-2-yl)-6H-benzo[c]chromene-2-carboxamide], below 0.1 µM; as for `COc1cc2c(cc1OC)-c1cc(C(=O)N[C@@H](CO)Cc3c[nH]c4ccccc34)c(-c3ccccc3)cc1OC2` [Example 40, (R)—N-(1-hydroxy-3-(1H-indol-3-yl)propan-2-yl)-8,9-dimethoxy-3-phenyl-6H-benzo[c]chromene-2-carboxamide], below 0.1 µM.
With `COc1cc2c(cc1OC)-c1cc(C(=O)N[C@@H](CO)Cc3c[nH]c4ccccc34)c(C=C(C)C)cc1OC2` [Example 41, (R)—N-(1-hydroxy-3-(1H-indol-3-yl)propan-2-yl)-8,9-dimethoxy-3(2-methylprop-1-enyl)-6H-benzo[c]chromene-2-carboxamide], the half-inhibitory concentration (IC50) was below 0.1 µM.
Then `COc1cc2c(cc1OC)-c1cc(C(=O)N[C@@H](CO)Cc3c[nH]c4ccccc34)c(CC(C)C)cc1OC2` [Example 42, (R)—N-(1-hydroxy-3-(1H-indol-3-yl)propan-2-yl)-3-isobutyl-8,9-dimethoxy-6H-benzo[c]chromene-2-carboxamide], with below 0.1 µM; and `COc1cc2c(cc1OC(C)C)COc1cc(-c3ccccc3F)c(C(=O)N[C@@H](CO)Cc3c[nH]c4ccccc34)cc1-2` [Example 43, 3-(2-fluorophenyl)-N—((R)-1-hydroxy-3-(1H-indol-3-yl)propan-2-yl)-8-isopropoxy-9-methoxy-6H-benzo[c]chromene-2-carboxamide], with below 0.1 µM.
Regarding `COc1cc2c(cc1O)COc1cc(-c3ccccc3F)c(C(=O)N[C@@H](CO)Cc3c[nH]c4ccccc34)cc1-2` [Example 44, 3-(2-fluorophenyl)-8-hydroxy-N—((R)-1-hydroxy-3-(1H-indol-3-yl)propan-2-yl)-9-methoxy-6H-benzo[c]chromene-2-carboxamide], the IC50 was below 0.1 µM.
Then `COCCOc1cc2c(cc1OC)-c1cc(C(=O)N[C@@H](CO)Cc3c[nH]c4ccccc34)c(-c3ccccc3F)cc1OC2` [Example 45, 3-(2-fluorophenyl)-N—((R)-1-hydroxy-3-(1H-indol-3-yl)propan-2-yl)-9-methoxy-8-(2-methoxyethoxy)-6H-benzo[c]chromene-2-carboxamide], with below 0.1 µM.
Consider `C=CCOc1cc2c(cc1OC)-c1cc(C(=O)N[C@@H](CO)Cc3c[nH]c4ccccc34)c(-c3ccccc3F)cc1OC2` [Example 46, 8-(allyloxy)-3-(2-fluorophenyl)-N—((R)-1-hydroxy-3-(1H-indol-3-yl)propan-2-yl)-9-methoxy-6H-benzo[c]chromene-2-carboxamide], for which the IC50 is below 0.1 µM.
On to `COc1cc2c(cc1OCCO)COc1cc(-c3ccccc3F)c(C(=O)N[C@@H](CO)Cc3c[nH]c4ccccc34)cc1-2` [Example 47, 3-(2-fluorophenyl)-N—((R)-1-hydroxy-3-(1H-indol-3-yl)propan-2-yl)-8-(2-hydroxyethoxy)-9-methoxy-6H-benzo[c]chromene-2-carboxamide], for which the IC50 is below 0.1 µM.

The values above are taken from patent publication US9044463B2, “FSH receptor antagonists” (Merck Sharp & Dohme B.V., priority 2011, dated 2015).
